Data published in patent US4571396A, “Antibacterial agents” (Warner-Lambert Company, priority 1985, dated 1986).
≈ marks a conversion by molar mass, not a printed value. Where a name gives a salt, the structure may show the parent alone. Read-outs that look alike come from different tables or passages of the source.

Experiments:
Assay in all cases: In vitro antibacterial activity, microtitration dilution method (MIC)
Type in all cases: cell-based
[1] = test system: Enterobacter cloacae MA 2646
From the text: (§1) Agents & Chemoth., 6, 124 (1974), which is incorporated herein by reference.

Escherichia coli Vogel = conditions: read-out: Minimal Inhibitory Concentration MIC
From the text: as §1

[2] = test system: Klebsiella pneumoniae MGH-2
From the text: as §1

Proteus rettgeri M 1771 = conditions: Providencia rettgeri
From the text: as §1

[3] = test system: Pseudomonas aeruginosa UI-18
From the text: as §1

[4] = test system: Staphylococcus aureus UC-76
From the text: as §1

[5] = test system: Streptococcus faecalis MGH-2; conditions: Enterococcus faecalis
From the text: as §1

[6] = test system: Streptococcus pneumoniae SV-1
From the text: as §1

[7] = test system: Streptococcus pyogenes C-203
From the text: as §1

[8] = test system: Staphylococcus aureus H 228; conditions: H228, read-out: Minimal Inhibitory Concentration MIC
From the text: The compounds of the invention display antibacterial activity when tested by the microtitration dilution method as described in Heifetz, et al, Antimicr. Agents & Chemoth., 6, 124 (1974), which is incorporated herein by reference.
By use of the above reference method, the followed minimum inhibitory concentration value (MICs in μg/ml) shown in the table were obtained for representative compounds of the invention.

[9] = MA2646, Enterobacter cloacae MA 2646, in vitro, read-out: Minimal Inhibitory Concentration MIC
[10] = MGH2, Klebsiella pneumoniae MGH-2, in vitro, read-out: Minimal Inhibitory Concentration MIC
[11] = M1771, Proteus rettgeri M 1771, in vitro, read-out: Minimal Inhibitory Concentration MIC
[12] = UI18, Pseudomonas aeruginosa UI-18, in vitro, read-out: Minimal Inhibitory Concentration MIC
[13] = UC76, Staphylococcus aureus UC-76, in vitro, read-out: Minimal Inhibitory Concentration MIC
[14] = MGH2, Streptococcus faecalis MGH-2, in vitro, read-out: Minimal Inhibitory Concentration MIC
[15] = SV1, Streptococcus pneumoniae SV-1, in vitro, read-out: Minimal Inhibitory Concentration MIC
[16] = C203, Streptococcus pyogenes C-203, in vitro, read-out: Minimal Inhibitory Concentration MIC

SMILES | MIC [1, 9] | MIC (Escherichia coli Vogel) | MIC [2, 10] | MIC (Proteus rettgeri M 1771; [11]) | MIC [3, 12] | MIC [4, 13] | MIC [5, 14] | MIC [6, 15] | MIC [7, 16] | MIC [8] | MIC ([1]; Enterobacter cloacae, MA2646, read-out: Minimal Inhibitory Concentration MIC) | MIC ([6]; Streptococcus pneumoniae, SV1, read-out: Minimal Inhibitory Concentration MIC) | MIC ([7]; Streptococcus pyogenes, C203, read-out: Minimal Inhibitory Concentration MIC) | MIC (Proteus rettgeri M 1771; M1771, read-out: Minimal Inhibitory Concentration MIC) | MIC ([4]; Staphylococcus aureus, UC76, read-out: Minimal Inhibitory Concentration MIC) | MIC ([3]; Pseudomonas aeruginosa, UI18, read-out: Minimal Inhibitory Concentration MIC) | MIC ([5]; MGH2, read-out: Minimal Inhibitory Concentration MIC) | MIC ([2]; Klebsiella pneumoniae, MGH2, read-out: Minimal Inhibitory Concentration MIC)
CCn1cc(C(=O)O)c(=O)c2cc(F)c(N3CC4CCC3CN4C)nc21.Cl (stereo not drawn) [Ex. 10a, 1-Ethyl-6-fluoro-7-(5-methyl-2,5-diazabicyclo[2.2.2]oct-2-yl)-1,4-dihydro-4-oxo-1,8-naphthyridine-3-carboxylic acid hydrochloride] | < 0.1 µg/mL | 0.4 µg/mL | 0.4 µg/mL | 1.6 µg/mL | 1.6 µg/mL | 0.2 µg/mL | 1.6 µg/mL | 1.6 µg/mL | 1.6 µg/mL | 0.4 µg/mL | – | – | – | – | – | – | – | –
CCn1cc(C(=O)O)c(=O)c2cc(F)c(N3CCN4CCC3C4)c(F)c21 (stereo not drawn) [Ex. 16, 7-(1,4-Diazabicyclo[3.2.1]oct-4-yl)-1-ethyl-6,8-difluoro-1,4-dihydro-4-oxo-3-quinolinecarboxylic acid] | 0.5 µg/mL (≈ 1.38 µM) | – | 0.1 µg/mL (≈ 0.275 µM) | 0.2 µg/mL (≈ 0.55 µM) | 0.4 µg/mL (≈ 1.1 µM) | 0.1 µg/mL (≈ 0.275 µM) | 0.8 µg/mL (≈ 2.2 µM) | 0.8 µg/mL (≈ 2.2 µM) | 0.4 µg/mL (≈ 1.1 µM) | 0.4 µg/mL (≈ 1.1 µM) | – | – | – | – | – | – | – | –
O=C(O)c1cn(C2CC2)c2c(F)c(N3CC4CCC3CN4)c(F)cc2c1=O (stereo not drawn) [Ex. 3, 7-(2,5-Diazabicyclo[2.2.2]oct-2-yl)-1-cyclopropyl-6,8-difluoro-1,4-dihydro-4-oxo-3-quinolinecarboxylic acid] | – | 0.05 µg/mL (≈ 0.133 µM) | 0.1 µg/mL (≈ 0.266 µM) | 0.8 µg/mL (≈ 2.13 µM) | 0.8 µg/mL (≈ 2.13 µM) | 0.025 µg/mL (≈ 0.0666 µM) | 1.6 µg/mL (≈ 4.26 µM) | – | – | 0.4 µg/mL (≈ 1.07 µM) | 0.05 µg/mL (≈ 0.133 µM) | 1.6 µg/mL (≈ 4.26 µM) | 0.8 µg/mL (≈ 2.13 µM) | – | – | – | – | –
O=C(O)c1cn(C2CC2)c2nc(N3CC4CCC3CN4)c(F)cc2c1=O (stereo not drawn) [Ex. 6a, 7-(2,5-diazabicyclo[2.2.2]oct-2-yl)-1-cyclopropyl-6-fluoro-1,4-dihydro-4-oxo-1,8-naphthyridine-3-carboxylic acid] | 0.1 µg/mL (≈ 0.279 µM) | 0.1 µg/mL (≈ 0.279 µM) | 0.05 µg/mL (≈ 0.14 µM) | 0.4 µg/mL (≈ 1.12 µM) | 0.2 µg/mL (≈ 0.558 µM) | 0.006 µg/mL (≈ 0.0167 µM) | 0.4 µg/mL (≈ 1.12 µM) | 0.4 µg/mL (≈ 1.12 µM) | 0.4 µg/mL (≈ 1.12 µM) | 0.05 µg/mL (≈ 0.14 µM) | – | – | – | – | – | – | – | –
O=C(O)c1cn(C2CC2)c2c(F)c(N3CCN4CCC3C4)c(F)cc2c1=O (stereo not drawn) [Ex. 17, 1-Cyclopropyl-7-(1,4-diazabicyclo[3.2.1]oct-4-yl)-6,8-difluoro-1,4-dihydro-4-oxo-3-quinolinecarboxylic acid] | 0.025 µg/mL (≈ 0.0666 µM) | 0.05 µg/mL (≈ 0.133 µM) | 0.05 µg/mL (≈ 0.133 µM) | 0.2 µg/mL (≈ 0.533 µM) | 0.4 µg/mL (≈ 1.07 µM) | 0.025 µg/mL (≈ 0.0666 µM) | 0.2 µg/mL (≈ 0.533 µM) | 0.4 µg/mL (≈ 1.07 µM) | 0.1 µg/mL (≈ 0.266 µM) | 0.4 µg/mL (≈ 1.07 µM) | – | – | – | – | – | – | – | –
O=C(O)c1cn(C2CC2)c2c(F)c(N3CC4CC3CN4)c(F)cc2c1=O (stereo not drawn) [Ex. 7d, 1-cyclopropyl-7-[2,5-diazabicyclo(2.2.1)hept-2-yl]-6,8-difluoro-1,4-dihydro-4-oxo-3-quinolinecarboxylic acid] | 0.1 µg/mL (≈ 0.277 µM) | 0.05 µg/mL (≈ 0.138 µM) | 0.1 µg/mL (≈ 0.277 µM) | – | 0.2 µg/mL (≈ 0.553 µM) | 0.2 µg/mL (≈ 0.553 µM) | 0.8 µg/mL (≈ 2.21 µM) | 1.6 µg/mL (≈ 4.43 µM) | 0.2 µg/mL (≈ 0.553 µM) | 0.8 µg/mL (≈ 2.21 µM) | – | – | – | 0.1 µg/mL (≈ 0.277 µM) | – | – | – | –
CCn1cc(C(=O)O)c(=O)c2cc(F)c(N3[C@@H]4CC[C@H]3C[C@H](N)C4)nc21 [Ex. 20, 7-(3-(Exo-amino)-8-azabicyclo[3.2.1]oct-8-yl]-1-ethyl-6-fluoro-1,4-dihydro-4-oxo-1,8-naphthyridine-3-carboxylic acid, hydrochloride] | 0.8 µg/mL | 0.4 µg/mL | 0.4 µg/mL | 0.8 µg/mL | 0.8 µg/mL | – | 0.8 µg/mL | 0.4 µg/mL | 0.4 µg/mL | 0.4 µg/mL | – | – | – | – | 0.2 µg/mL | – | – | –
CN1CC2CC1CN2c1c(F)cc2c(=O)c(C(=O)O)cn(C3CC3)c2c1F.Cl (stereo not drawn) [Ex. 10c, 1-cyclopropyl-6,8-difluoro-1,4-dihydro-7-(5-methyl-2,5-diazabicyclo[2.2.1]hept-2-yl)-4-oxo-3-quinolinecarboxylic acid monohydrochloride] | 0.1 µg/mL | 0.05 µg/mL | 0.05 µg/mL | 0.2 µg/mL | 0.4 µg/mL | 0.025 µg/mL | 0.4 µg/mL | 0.4 µg/mL | 0.4 µg/mL | 0.1 µg/mL | – | – | – | – | – | – | – | –
CCn1cc(C(=O)O)c(=O)c2cc(F)c(N3CC4CCC3CN4)c(F)c21 (stereo not drawn) [Ex. 2, 7-(2,5-Diazabicyclo[2.2.2]oct-2-yl)-1-ethyl-6,8-difluoro-1,4-dihydro-4-oxo-3-quinolinecarboxylic acid] | 0.2 µg/mL (≈ 0.55 µM) | 0.1 µg/mL (≈ 0.275 µM) | 0.4 µg/mL (≈ 1.1 µM) | 0.8 µg/mL (≈ 2.2 µM) | 0.4 µg/mL (≈ 1.1 µM) | ≤ 0.1 µg/mL | 1.6 µg/mL (≈ 4.4 µM) | 0.8 µg/mL (≈ 2.2 µM) | 0.4 µg/mL (≈ 1.1 µM) | 0.4 µg/mL (≈ 1.1 µM) | – | – | – | – | – | – | – | –
CN1CC2CC1CN2c1nc2c(cc1F)c(=O)c(C(=O)O)cn2C1CC1 (stereo not drawn) [Ex. 10b, 1-cyclopropyl-6-difluoro-1,4-dihydro-7-(5-methyl-2,5-diazabicyclo[2.2.1]hept-2-yl)-4-oxo-1,8-naphthyridine-3-carboxylic acid monohydrochloride] | – | 0.05 µg/mL | 0.05 µg/mL | 0.4 µg/mL | – | 0.1 µg/mL | – | 0.4 µg/mL | 0.4 µg/mL | 0.4 µg/mL | – | – | – | – | – | 0.4 µg/mL | 0.8 µg/mL | –
O=C(O)c1cn(C2CC2)c2nc(N3CCN4CCC3C4)c(F)cc2c1=O (stereo not drawn) [Ex. 14] | 0.1 µg/mL (≈ 0.279 µM) | 0.05 µg/mL (≈ 0.14 µM) | – | 0.4 µg/mL (≈ 1.12 µM) | 0.8 µg/mL (≈ 2.23 µM) | 0.1 µg/mL (≈ 0.279 µM) | 0.8 µg/mL (≈ 2.23 µM) | 0.8 µg/mL (≈ 2.23 µM) | 0.4 µg/mL (≈ 1.12 µM) | 0.8 µg/mL (≈ 2.23 µM) | – | – | – | – | – | – | – | 0.1 µg/mL (≈ 0.279 µM)
Cl.O=C(O)c1cn(C2CC2)c2nc(N3CC4CC3CN4)c(F)cc2c1=O (stereo not drawn) [Ex. 7c, 1-cyclopropyl-7-[2,5-diazabicyclo(2.2.1)hept-2-yl]-6-fluoro-1,4-dihydro-4-oxo-1,8-naphthyridine-3-carboxylic acid, monohydrochloride] | 0.05 µg/mL | 0.1 µg/mL | 0.05 µg/mL | 0.2 µg/mL | – | 0.2 µg/mL | 0.8 µg/mL | 0.8 µg/mL | 0.2 µg/mL | 0.8 µg/mL | – | – | – | – | – | – | – | –
